Data reported in paper PMC12040169 (PLOS Biology, 2025).

Assay: in vitro
Details: human, hela cells, % viability

Structure (SMILES) | viability at 28.5 h, 10 µM [%]
COc1cccc(-c2nc(SCC(=O)Nc3ccc([N+](=O)[O-])cc3)[nH]c(=O)c2C#N)c1 [CBK264912] | 105
CC(C)N(C(=O)Cn1nc(-c2cccs2)ccc1=O)C(C)C [CBK282638] | 90
COc1ccc(-c2nc(NC(=O)c3ccc(S(N)(=O)=O)cc3)cnc2-c2cccc(C)c2)cc1 [CBK037559] | 103
COC(=O)c1cccn2cc(CN3CCOCC3(C)C)nc12 [CBK304879] | 93.8
Clc1ccc(CN2CCC(NCCCn3cccn3)CC2)cc1 [CBK304004] | 84.2
CS(=O)(=O)CCNC(=O)c1cnc(-c2cccc(C(F)(F)F)c2)c(-c2ccncc2)c1 [CBK036661] | 105
FC(F)(F)c1ccccc1NC(=S)Nc1ncn(Cc2ccc(Cl)c(Cl)c2)n1 [CBK267130] | 87.1
O=C(CSc1ccc(-n2ccnc2)nn1)Nc1cccnc1 [CBK287635] | 97.6
COc1ccc(-c2nc(-c3cccs3)cnc2N)cc1OC [CBK063981] | 107
CCNC(=O)C1(Cc2ccccc2-c2ccccc2)CCN(C(=O)c2csc(C)c2)CC1 [CBK285698] | 93.3
O=C(CSc1nnc(-c2cccnc2)n1-c1ccccc1)Nc1cc(C(F)(F)F)ccc1Cl [CBK267540] | 90.8
CCOC1C(OCC)N(S(=O)(=O)c2ccc(C)cc2)CCN1S(=O)(=O)c1ccc(C)cc1 (stereo not shown) [CBK261832] | 116
OC(COCc1ccc2c(c1)OCO2)CN1CCN(Cc2ccccc2)CC1 (stereo not shown) [CBK278249C] | 93.5
Cc1cc2occ(CC(=O)NCc3ccccn3)c2c(C)c1Cl [CBK269175] | 97.5
CCCCOC(=O)c1ccc(NC(=O)c2c(Cl)cccc2Cl)cc1 [CBK263664] | 88.2
c1ncc(N2CCCC2)nc1OCCN1CCOCC1 [CBK113430] | 89.1
Cc1nc(C2(O)CCCN(C3CCCCC3)CC2)sc1COc1ccc(F)c(F)c1 (stereo not shown) [CBK286499] | 86.4

Structure (SMILES) | viability at 28.5 h, 10 µM [%]
CCOC(=O)c1ccc(N2C(=O)CC(N3CCCc4ccccc43)C2=O)cc1 (stereo not shown) [CBK268720] | 109
COc1ccc(Sc2nccnc2NC(C)C)cc1OC [CBK115249] | 87.4
O=C1c2ccccc2C(=O)N1Cc1nc2ccccc2c(=O)n1CCN1CCOCC1 [CBK268472] | 105
CN1CCN(c2ccc3ccn(S(=O)(=O)c4ccccc4Br)c3n2)CC1 [CBK200019C] | 92.5
Oc1ccc2[nH]cc(CCNC(c3ccccc3)(c3ccccc3)c3ccccc3)c2c1 [CBK260891] | 103
CC(Cc1ccc(N(C)C)cc1)NC(=O)C1CN(S(=O)(=O)c2ccc(F)cc2)C1 (stereo not shown) [CBK285942] | 114
CC(=O)N1CCN2C(=O)c3cc(-c4ccc5c(c4)OCO5)ccc3NC(=O)[C@H]2C1 [CBK289597] | 90.1
O=C(O)CC(C(=O)Nc1ccccc1)C1CCCO1 (stereo not shown) [CBK286809] | 93
COC1C(O)C(CO)OC1n1cnc2c(N)nc(N)nc21 (stereo not shown) [CBK201241] | 95.4
COC(=O)Cn1c(=O)n(CCc2ccccc2)c(=O)c2c3c(sc21)CCCC3 [CBK267666] | 98.6
CCC(CO)Nc1cncc(-c2cccc(F)c2)n1 (stereo not shown) [CBK065752] | 96.1
NC(=O)C1CCN(CC(O)COc2ccc(-c3ccccc3)cc2)CC1 (stereo not shown) [CBK269528] | 89.9
O=C(c1ccco1)N1CCC(c2nnc(-c3ccccc3)c(-c3ccccc3)n2)CC1 [CBK286282] | 86.4
O=C(N[C@H]1CCN2C(=O)c3cc(-c4ccccc4F)ccc3NC(=O)[C@H]12)c1cnccn1 [CBK289274] | 84.7
O=c1[nH]c(=O)c2cc(S(=O)(=O)Nc3ccc(N4CCCCCC4)cc3)ccc2[nH]1 [CBK286361] | 81.4
O=C(Cn1cnc2ccccc21)N1CCC(c2ccccc2)C1 (stereo not shown) [CBK281845] | 84.5
COc1ccc(-n2ncc3c2CCCN(C(=O)C2CC2)C3)cc1 [CBK284498] | 84.3
